Experimental data: patent US7074819B2, “Benzopyran or thiobenzopyran derivatives” (Chugai Seiyaku Kabushiki Kaisha, priority 1998, dated 2006)
Read-outs that look alike come from different tables or passages of the source.

Assays:
ovariectomized mice [1] = assay: Anti-estrogenic activity (subcutaneous administration): inhibition of estradiol-stimulated uterine weight increase; assay type: in vivo, mice (ICR); details: s.c., 3 days; for Inhibition (%) of the increase of uterine weight by estradiol: 30 μg/mouse in peanut oil, ovariectomized ICR mice given 17β-estradiol-benzoate 0.1 μg/day; for inhibition of the increase of uterine weight by estradiol (in words): 30 μg/mouse, ovariectomized mice given 17β-estradiol
Experimental: Anti-estrogenic activity of the test compound by subcutaneous administration was determined according to the method described hereinafter. In this experiment, the compounds of Examples 1, 2, 3, 4, 5, 22, 127 and 128 were used as the test compound and the known anti-estrogenic compound ZM189154 was used as the control compound as in Experiment 1.
In this experiment, the test compound or the control compound was dissolved in peanut oil (Sigma) and injected subcutaneously for 3 days, once a day. After 24 hours from the last injection, the test animal was sacrificed and uterus was removed and weighed.

MCF-7 cell lines (ATCC) = assay: Cell growth inhibiting activity (MTT, with 0.1 nM estradiol, 7 days); assay type: cell-based; details: MCF-7 cells, read-out: IC50 value for inhibiting cell growth of 50%
Experimental: In this experiment, the cell growth inhibiting activity was determined by using the compounds of Examples 1, 2, 3, 5, 22, 127 and 128 as the test compound and the known anti-estrogenic compound […] having the following structure (see, EP0124369 B1) as the control compound, according to the method described hereinafter.
One day before drug administration, incubated MCF-7 cells were plated in 96-well plate in the concentration of 5×10^3 cells per well. After the 96-well plate was incubated for one day, 0.1 nM of estradiol and the test compound in the given concentration were added to each well. The plate was incubated for 7 days at 37° C. and then MTT solution (Sigma) was added to each well in the amount of 15 μl and allowed to react for 2 hours at 37° C. After the reaction was completed, the solubilizing/stopping solution (constitution: SDS, acetic acid, N,N-dimethylformamide) was added to each well in the amount of 100 μl. Then, the absorption for each well at 570 nm was measured by means of a plate reader. IC50 value for inhibiting cell growth of 50% was calculated from the results as measured and described in the following Table 2.

ovariectomized mice [2] = assay: Anti-estrogenic activity (oral administration): inhibition of estradiol-stimulated uterine weight increase; assay type: in vivo; details: p.o., 3 days, 10 mg/kg in 5% arabic gum solution; ovariectomized ICR mice given 17β-estradiol-benzoate 0.1 μg/day
Experimental: Oral anti-estrogenic activity in vivo of the test compound was determined according to the method described hereinafter. In this experiment, the compound of Example 3, 22, 127 and 128 were used as the test compound and the known anti-estrogenic compound ZM189154 was used as the control compound as in Experiment 2.
In this experiment, the test compound or the control compound was suspended in 5% arabic gum solution and orally administered for 3 days, once a day. After 24 hours from the last administration, the test animal was sacrificed and uterus was removed and weighed.

[3] = 7 days at 37° C., absorption at 570 nm

| Compound | IC50 (MCF-7 cell lines (ATCC); Homo sapiens, MCF7, 168 h, 7 days at 37° C., absorption at 570 nm) [nM] | IC50 (MCF-7 cell lines (ATCC); [3]) [nM] | IC50 (MCF-7 cell lines (ATCC); Homo sapiens, MCF7, 168 h, 7 days, control compound, (cis)) [nM] | IC50 (MCF-7 cell lines (ATCC); Homo sapiens, MCF7, 168 h, 7 days, control compound, (trans)) [nM] | Inhibition (%) of the increase of uterine weight by estradiol (ovariectomized mice [1]) [%] | inhibition of the increase of uterine weight by estradiol (in words) (ovariectomized mice [1]) | Inhibition (%) of the increase of uterine weight by estradiol (ovariectomized mice [2]) [%] |
| --- | --- | --- | --- | --- | --- | --- | --- |
| CN(CCCCC[C@H]1c2ccc(O)cc2OC[C@@]1(C)c1ccc(O)cc1)CCCSCCCC(F)(F)C(F)(F)F (racemic) [Example 4, (3RS,4RS)-7-hydroxy-3-(4-hydroxyphenyl)-4-{5-[N-methyl-N-3-(4,4,5,5,5-pentafluoropentylthio)propylamino]pentyl}-3-methylchroman] |  |  |  |  | 26.4 |  |  |
| CCCCNC(=N)CCCCCCCCCC[C@H]1c2ccc(O)cc2OC[C@@]1(C)c1ccc(O)cc1 (racemic) [Compound I of Example 2, (3RS,4RS)-7-hydroxy-4-[(11-imino-11-N-butylamino)undecyl]-3-(4-hydroxyphenyl)-3-methylchroman] |  | 67.5 |  |  | 30.8 |  |  |
| 7-hydroxy-3-(4-hydroxyphenyl)-3-methyl-4-{9-[4-(4,4,5,5,5-pentafluoropentyl)piperazinyl]nonyl}chroman [Example 1] |  | 60.4 |  |  | 27.5 | substantially inhibit |  |
| CC1(c2ccc(O)cc2)CSc2cc(O)ccc2C1CCCCCCCCC(CCCC(F)(F)C(F)(F)F)C(=O)O (stereo not drawn) [Example 22, (3′RS,4′RS)-10-[7-hydroxy-3-(4-hydroxyphenyl)-3-methyltbiochroman-4-yl]-2-(4,4,5,5,5-pentafluoropentyl)decanoic acid] |  | 850 |  |  | 51.0 | substantially inhibit | 81.3 |

More lines, main results first:

| IC50 (MCF-7 cell lines (ATCC); Homo sapiens, MCF7, 168 h, 7 days at 37° C., absorption at 570 nm) [nM] | IC50 (MCF-7 cell lines (ATCC); [3]) [nM] | IC50 (MCF-7 cell lines (ATCC); Homo sapiens, MCF7, 168 h, 7 days, control compound, (cis)) [nM] | IC50 (MCF-7 cell lines (ATCC); Homo sapiens, MCF7, 168 h, 7 days, control compound, (trans)) [nM] | Compound | Inhibition (%) of the increase of uterine weight by estradiol (ovariectomized mice [1]) [%] | inhibition of the increase of uterine weight by estradiol (in words) (ovariectomized mice [1]) | Inhibition (%) of the increase of uterine weight by estradiol (ovariectomized mice [2]) [%] |
| --- | --- | --- | --- | --- | --- | --- | --- |
| 387 |  |  |  | [O-][S+](CCCC(F)(F)C(F)(F)F)CCOCCOc1ccc(C2=C(c3ccc(O)cc3)COc3cc(O)ccc32)cc1 (stereo not drawn) [Example 5, 4-{4-{2-[2-(4,4,5,5,5-pentafluoropentylsulfinyl)ethoxy]ethoxy}phenyl}-7-hydroxy-3-(4-hydroxyphenyl)-2H-chromene] | 9.8 |  |  |
|  |  | 9.2 | 77 | C[C@]1(c2ccc(O)cc2)CCc2cc(O)ccc2C1CCCCCCCCC[S+]([O-])CCCC(F)(F)C(F)(F)F (stereo partly drawn) [ZM189154, reference compound] | 73.8 |  | 41.7 |
|  | 1000 |  |  | CCCCN=C(CCCCCCCCCC[C@H]1c2ccc(O)cc2OC[C@@]1(C)c1ccc(O)cc1)NCCCC (racemic) [Compound II of Example 2, (3RS,4RS)-7-hydroxy-4-[(11-N-butylimino-11-N-butylamino)undecyl]-3-(4-hydroxyphenyl)-3-methylchroman] | −9.3 |  |  |
|  | 54.5 |  |  | CC(C)(C)c1cc(CN2CCN(CCOc3ccc([C@@H]4c5ccc(O)cc5OC[C@@]4(C)c4ccc(O)cc4)cc3)CC2)cc(C(C)(C)C)c1 (racemic) [Example 3, (3RS,4SR)-7-hydroxy-4-{4-{2-{4-{[3,5-bis(t-butyl)phenyl]methyl}piperazinyl}ethoxy}phenyl}-3-(4-hydroxyphenyl)-3-methylchroman] | 11.7 |  | 0.6 |
